Results published in PMC6214004, “Novel C15 Triene Triazole, D-A Derivatives Anti-HepG2, and as HDAC2 Inhibitors: A Synergy Study” (International Journal of Molecular Sciences, 2018).
≈ marks a conversion by molar mass, not a printed value. Where two headings read alike, the source gives them in different places. One block for each compound: values may come before it.

Tests used:
[1] = tested on: HepG2 (human hepatocellular carcinoma); test: MTT assay, inhibition of HepG2 cell proliferation; format: cell-based
Procedure: Preliminary in vitro screening results of the title compounds for antitumor activity against HepG2 (human hepatocellular carcinoma) and human normal hepatocytes (LO2) were determined by MTT assay (thiazolyl blue salt colorimetry) (see Figure 1 and Figure 2). […]
All analyses were carried out with SPSS 19.0 software (SPSS, Chicago, IL, USA). […]
The measurement data material of the experimental were described by x±s. Two samples were compared with the t test. The difference was significant statistically (p < 0.05).
MTT assay detect cell proliferation
MTT assay was used to determine the inhibitory effect on the proliferation of HepG2 cells of levopimaric acid. Compound 4 and levopimaric acid were combined with three groups below. The cells in the logarithmic growth phase were inoculated into 96-well culture plates at 3.5×10^3 cells/well, 0.2 ml per well, and incubated for 72 h with different concentrations of levopimaric acid. Then, we continually cultured it for 4 h after mixing fresh MTT working solution 20 μL (final concentration was 0.5 mg/mL), and carefully discarded the supernatant, added […] of DMSO per well and shook up. The absorbance (A) at the wavelength of 490 nm was measured by a microplate reader. The cell proliferation inhibition rate was calculated according to the following formula=[(negative control group A value - blank group A value) - (experimental group A value - blank group A value)]/ (Negative control group A value - blank group A value) × 100%.
Table S1 Compound 4 and levopimaric acid anti-HepG2 by single drug.
Concentration 4 Concentration Levopimaric acid
/μM Inhibitory rate/% Inhibitory rate/% /μM […]
Detection of cell proliferation by MTT
MTT assay was used to determine the inhibitory effect of the sample on the proliferation of HepG2 cells. The tumor cells of logarithmic growth stage were inoculated with 3.5×10^3/well in 96 well culture plate. 0.2 ml/pore system was cultured for 72 h with different concentrations of samples. Then 20 μL (final concentration 0.5 mg/mL) of MTT were added to each pore for 4 h. The supernatant was carefully adsorbed, and 0.15 mL DMSO was added to each pore, and oscillatory mixing was carried out. The absorbance (A) value at 490 nm wavelength was measured by enzyme labeling instrument.
The inhibition rate of cell proliferation was calculated as follows: [(A value of negative control group - A value of blank group) - (A value of experimental group A value of blank group)]/(negative pair […]
(§1) Firstly, sucked out the original medium when the cell coverage in the culture bottle had reached 80% ~ 90%. Secondly, added appropriate trypsin (0.25%) to digest the cells for 1~2 min until they became round. Mixed the equal volume of serum-containing medium to terminate the digestion.
Thirdly, use pipette to percuss cells and make them suspend. Then, sucked the cells into a 15 mL centrifuge tube and centrifuge them for 5 min. At last, dropped the supernatant, add 1~2 mL medium to suspend the cells, and cultivated them in the culture bottle.
The first step was to add suitable trypsin digestion cells and collected the cell suspension.
Centrifuged the suspension at 1000 rpm for 5 min in the tube, and then abandoned the supernatant.
Secondly, added cryoprotectant to the cell sediment and mixed them lightly until the cell density was 1×106~1×10^7/ml. Later, divided them into 1~1.5 ml per tube, tightened the cap and made a mark on surface including the cell code and the freezing date. In the end, cooled the cells in following order: room temperature→ 4℃ (20 min) → the freezer (30 min) → low temperature refrigerator (-30℃ for 1 h) →gaseous nitrogen (30 min) →the liquid nitrogen.
(§2) Cell proliferation measured by MTT
First of all, digested the cells and counted them. Added 100 μL cell suspension (3×10^4 /ml) into each hole of the 96 holes cell culture plate. Secondly, placed the 96 holes cell culture plate in a 5% CO2 culture box for 24 h at 37℃. Then, used the medium to dilute the drug into the desired working fluid […]

[2] = tested on: human normal hepatocytes (LO2); test: MTT assay, inhibition (toxicity) of LO2 cell proliferation; format: cell-based; settings: Hepatocyte, 72 h, read-out: inhibitory activity against LO2, IC50
Procedure: Preliminary in vitro screening results of the title compounds for antitumor activity against HepG2 (human hepatocellular carcinoma) and human normal hepatocytes (LO2) were determined by MTT assay (thiazolyl blue salt colorimetry) (see Figure 1 and Figure 2).
as §1
Thirdly, use pipette to percuss cells and make them suspend. Then, sucked the cells into a 15 mL centrifuge tube and centrifuge them for 5 min. At last, dropped the supernatant, add 1~2 mL medium to suspend the cells, and cultivated them in the culture bottle. […]
as §2
First of all, digested the cells and counted them. Added 100 μL cell suspension (3×10^4 /ml) into each hole of the 96 holes cell culture plate. Secondly, placed the 96 holes cell culture plate in a 5% CO2 culture box for 24 h at 37℃. Then, used the medium to dilute the drug into the desired working fluid concentration, added 100 μL per hole to the corresponding drug medium, and established a negative control group as well as a positive control group (paclitaxel, 20 ug/ml). Next, placed 96 holes cell culture plate at 37℃ and cultivated the cells in a 5% CO2 incubator for 72 h. After treating 96 holes board with MTT staining, estimated the OD value: a. Added 20 μL MTT (5 mg/ml) per hole, and cultivated cells in the box for 4 h. b. Discarded the supernatant, added 150 μL DMSO in each hole, and mixed them gently after treatment with shaker for 10 min. c. Under 490nm ultraviolet wavelength, read the OD value from ELISA.
Finally, figured up the inhibition rate of each group
*The inhibition rate (%) = (negative control group OD value - experimental group OD value) / negative control group OD value ×100%. […]
The next day, joined the corresponding drug-containing medium after the cells adhered. And established the negative control group at the same time. After 72 h, use 0.25% pancreatin (not contain EDTA) to digest the cells. Thirdly, applied PBS to scrub the cells (centrifuge them at 2000 rpm for 5min), and collected 5×10^5 cells. Then, used a volume fraction of 70% ethanol to fix the single cell suspension for 2 h (or overnight), and stored it at 4℃. Before washing, employed PBS to remove the fixative solution (if needed, filter cell suspension through 200 mesh). Added […] RNase A, and made it in water bath at 37℃ for 30 min. Later, placed it at 4℃ for 30 min without light. […]
Detection of apoptosis by Annexin-V FITC/PI double staining
Firstly, inoculated the logarithmic growth cells into the six-hole plate. […]

LO2 = tested on: LO2; parameters: method as in earlier work; settings: LO2, 24 h; cited from earlier work
[3] = Homo sapiens, HepG2, 72 h, 72 h, MTT, read-out: inhibitory activity against HepG2, IC50

SMILES: C/C=C\C=C\C/C=C\CCCCCCCc1cccc(O)c1O [Compound 1, triene urushiol]
- IC50 ([1]; Homo sapiens, HepG2, 72 h, read-out: inhibitory activity against HepG2, IC50, 72 h, MTT): < 50 µM
- IC50 ([1]; read-out: inhibitory activity against HepG2, IC50, 72 h, MTT): 28.6 µM
- IC50 [2]: 66.1 µM

- IC50 [1, 3]: 29.4 µM
SMILES: CC1C=CC(C/C=C\CCCCCCCc2cccc(O)c2O)C2(F)C(=O)OC(=O)C12F (stereo not shown) [Compound 15]
- IC50 [2]: > 200 µM

- IC50 [1, 3]: 39.5 µM
SMILES: CC(C)C1=CC[C@H]2C(=C1)CC[C@@H]1[C@]2(C)CCC[C@@]1(C)C(=O)O [Compound 5, Levopimaric Acid]
- inhibition at 0.585 µM ([1]; Homo sapiens, HepG2, 0.585 μM, 72 h, read-out: Inhibitory rate/%, anti-HepG2 by single drug): 4.12%
- inhibition at 1.171 µM ([1]; Homo sapiens, HepG2, 1.171 μM, 72 h, read-out: Inhibitory rate/%, anti-HepG2 by single drug): 5.45%
- inhibition at 2.343 µM ([1]; Homo sapiens, HepG2, 2.343 μM, 72 h, read-out: Inhibitory rate/%, anti-HepG2 by single drug): 9.45%
- inhibition at 4.687 µM ([1]; Homo sapiens, HepG2, 4.687 μM, 72 h, read-out: Inhibitory rate/%, anti-HepG2 by single drug): 13.8%
- inhibition at 9.375 µM ([1]; Homo sapiens, HepG2, 9.375 μM, 72 h, read-out: Inhibitory rate/%, anti-HepG2 by single drug): 32.1%
- inhibition at 18.75 µM ([1]; Homo sapiens, HepG2, 18.75 μM, 72 h, read-out: Inhibitory rate/%, anti-HepG2 by single drug): 44.6%
- inhibition at 37.5 µM ([1]; Homo sapiens, HepG2, 37.5 μM, 72 h, read-out: Inhibitory rate/%, anti-HepG2 by single drug): 47.2%
- inhibition at 75 µM ([1]; Homo sapiens, HepG2, 75 μM, 72 h, read-out: Inhibitory rate/%, anti-HepG2 by single drug): 73.4%
- inhibition at 150 µM ([1]; Homo sapiens, HepG2, 150 μM, 72 h, read-out: Inhibitory rate/%, anti-HepG2 by single drug): 91.5%
- IC50 [2]: > 200 µM

SMILES: CC(=O)O[C@H]1C(=O)[C@@]2(C)[C@H]([C@H](OC(=O)c3ccccc3)[C@]3(O)C[C@H](OC(=O)[C@H](O)[C@@H](NC(=O)c4ccccc4)c4ccccc4)C(C)=C1C3(C)C)[C@]1(OC(C)=O)CO[C@@H]1C[C@@H]2O [paclitaxel]
- IC50 on LO2 (LO2): 28.5 mg/L (≈ 33.4 µM)

SMILES: CC1C=CC(C/C=C\CCCCCCCc2cccc(O)c2O)C2(Cl)C(=O)OC(=O)C12Cl (stereo not shown) [Compound 16]
- IC50 ([1]; Homo sapiens, HepG2, 72 h, MTT, read-out: inhibitory activity against HepG2, IC50): 23.9 µM
- IC50 [2]: > 200 µM
